According to US20230235378A1, “LZHEIMER'S DISEASE-SPECIFIC ALTERATIONS OF PROTEIN KINASE C EPSILON (PKC-EPSILON PROTEIN LEVELS” (WEST VIRGINIA UNIVERSITY BOARD OF GOVERNORS ON BEHALF OF …, priority 2010, published 2023):
Each block holds one compound with its values, some of them ahead of it.

Experiments:
[1] = molecular target: T1, purified PKC (Homo sapiens, UniProt Q02156); experiment: PKC isozyme specificity: purified PKC preincubated with compound, activity measured radiometrically; format: biochemical; settings: for concentration needed to activate PKC, relative to BR-101 (DCP-LA): compared with BR-101 (DCP-LA); for activation of purified PKC: used as methyl esters
T1 construct: purchased Calbiochem
T1 sequence (Q02156 1-737): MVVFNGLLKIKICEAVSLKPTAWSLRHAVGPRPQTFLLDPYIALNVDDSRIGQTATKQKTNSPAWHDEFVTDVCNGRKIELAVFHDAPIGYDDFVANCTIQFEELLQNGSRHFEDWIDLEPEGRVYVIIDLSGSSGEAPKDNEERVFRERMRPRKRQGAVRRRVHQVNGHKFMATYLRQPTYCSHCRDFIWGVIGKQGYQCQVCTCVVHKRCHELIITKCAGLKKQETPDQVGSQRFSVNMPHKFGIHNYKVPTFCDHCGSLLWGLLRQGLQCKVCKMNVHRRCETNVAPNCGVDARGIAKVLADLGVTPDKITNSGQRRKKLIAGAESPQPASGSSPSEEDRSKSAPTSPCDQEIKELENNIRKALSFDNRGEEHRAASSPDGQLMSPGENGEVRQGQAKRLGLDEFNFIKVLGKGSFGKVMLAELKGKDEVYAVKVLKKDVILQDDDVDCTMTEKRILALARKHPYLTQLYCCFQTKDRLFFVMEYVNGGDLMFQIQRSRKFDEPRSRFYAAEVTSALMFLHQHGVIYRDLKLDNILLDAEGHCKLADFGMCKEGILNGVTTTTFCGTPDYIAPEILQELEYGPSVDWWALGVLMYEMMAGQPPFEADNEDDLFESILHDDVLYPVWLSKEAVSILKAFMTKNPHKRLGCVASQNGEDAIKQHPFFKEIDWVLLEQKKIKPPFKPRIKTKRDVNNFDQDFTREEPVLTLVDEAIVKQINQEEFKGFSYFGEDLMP
Procedure: (§1) Protein Kinase C Assay. Rat hippocampal cells were cultured and scraped in 0.2 ml homogenization buffer (20 mM Tris-HCl, pH 7.4, 50 mM NaF, 1 μg/ml leupeptin, and 0.1 mM PMSF) and homogenized by sonication in a Marsonix micro-probe sonicator (5 sec, 10 W). To measure PKC, 10 μl of cell homogenate or purified PKC isozyme (purchased from Calbiochem) was incubated for 15 min at 37° C. in the presence of 10 μM histones, 4.89 mM CaCl2, 1.2 μg/μl phosphatidyl-L-serine, 0.18 μg/μl 1,2-dioctanoyl-sn-glycerol, 10 mM MgCl2, 20 mM HEPES (pH 7.4), 0.8 mM EDTA, 4 mM EGTA, 4% glycerol, 8 μg/ml aprotinin, 8 μg/ml leupeptin, and 2 mM benzamidine. 0.5 μCi [γ-32P]ATP was added and 32P-phosphoprotein formation was measured by adsorption onto phosphocellulose as described previously. Nelson and Alkon, J. Neurochemistry. 1995; 65: 2350-57. For measurements of activation by BR-101 (DCP-LA) and similar compounds, PKC activity was measured in the absence of diacylglycerol and phosphatidylserine, as described by Kanno et al., and PKC δ, ε, η, and were measured in the absence of added EGTA and CaCl2, as described by Kanno et al., J. Lipid Res. 2006; 47: 1146-50. Low concentrations of Ca2+ are used because high Ca2+ interacts with the PKC phosphatidylserine binding site and prevents activation. For measurements of bryostatin activation, 1,2-diacylglycerol was omitted unless otherwise stated.
To determine their PKC isozyme specificity, the new compounds were preincubated with purified PKC for five minutes and the PKC activity was measured radiometrically.

[2] = tested on: Aß; settings: 1 μM, 8 h, cultured COS cells; cited from earlier work
[3] = tested on: PKC-ε; experiment: PKC-ε level in skin fibroblasts treated with oligomeric Aß1-42 (western blot); format: cell-based, human
Procedure: Immunoblot Analysis: Protein lysates (20 μg of protein each) were boiled in 2× Laemmli buffer for 10 min and separated using a 4-20% gradient Tris-Glycine gels. Separated proteins were transferred to nitrocellulose membrane and the membrane was blocked in BSA at room temperature (RT) for 15 min and incubated with 1:2000 dilution anti-PKC-ε rabbit polyclonal antibody (Santa Cruz Biotechnology, Santa Cruz, Calif.; Cat No: sc-214), and 1:5000 dilution anti-ß-tubulin, class III rabbit monoclonal antibody (Millipore Corporation, Billerica Mass., Cat No: 04-1049) for 1 hr at RT. After the incubation, the membrane fractions were washed 3× with standard western blot washing buffer and further incubated with alkaline phosphatase conjugated secondary antibody (Jackson Immunoresearch Laboratories, USA) at 1:10000 dilution for 45 min. The membrane fractions were finally washed 3× with standard western blot washing buffer and developed using the 1-step NBT-BCIP substrate (Thermo Scientific, Rockford, Ill.). Signal intensities of the images were recorded in the ImageQuant RT-ECL (GE Life Sciences, Piscataway, N.J.) and densitometric quantification was performed using the IMAL software (Blanchette Rockefeller Neurosciences Institute, Morgantown, W. Va.). Intensities quantified in this way, for PKC-ε were normalized against ß-tubulin for each lane.
Preparation of Soluble Oligomeric Aß: Oligomeric Aß was prepared following the method described by Noguchi et al., (2009). Aß generated by this method was reported to be highly neurotoxic, 10-15 nm spherical Aß assemblies termed as amylospheroids (ASPDs). […]
Treatment of skin fibroblasts with oligomeric Aß1-42: Skin fibroblasts both from AD and AC cases were cultured for 7 days to 100% confluence. […] The resulting band intensities for PKC-ε were quantified using ImageQuant RT-ECL (GE Life Sciences, USA) and densitometric analysis was performed using the IMAL software (Blanchette Rockefeller Neurosciences Institute, Morgantown, W. Va.).

[4] = tested on: PKC; experiment: PKC activity in cultured rat hippocampal H19-7/IGF-IR cells; format: cell-based; settings: 8 h; data not shown
Procedure: Cell Culture. Rat hippocampal H19-7/IGF-IR cells (ATCC, Manassas, Va.) were plated onto poly-L-lysine coated plates and grown at 35° C. in DMEM/10% FCS for several days until about 50% coverage was obtained. The cells were then induced to differentiate into a neuronal phenotype by replacing the medium with 5 ml N2 medium containing 10 ng/ml basic fibroblast growth factor at 39° C. and grown in T-75 flasks at 37° C. Human SH-SY5Y neuroblastoma cells (ATCC) were cultured in 45% F 12K/45% MEM/10% FCS. Mouse N2A neuroblastoma cells were cultured in DMEM/10% FCS without glutamine. Rat hippocampal neurons from 18-day-old embryonic
as §1
PKC activators that bind to the diacylglycerol binding site, including bryostatin, gnidimacrin, and phorbol esters, produce a transient activation of PKC activity, followed by a prolonged downregulation. Nelson et al., Trends in Biochem. Sci. 2009; 34: 136-45. This was confirmed in cultured rat hippocampal cells. Incubation of rat 1119-7/IGF-IR cells with (0.04 nM and 0.2 nM) bryostatin produced a 2-fold activation that lasted 30 min, followed by a 20% downregulation that returned to baseline by 24 h (data not shown). […] This sustained activation was only observed in primary neurons.

[5] = tested on: PKC; settings: read-out: EC50 (affinity for PKC); cited from earlier work

Compound: CCCCCC1CC1CC1CC1CC1CC1CC1CC1CCCC(=O)OC (stereo not drawn) [BR-115, methyl 4-(2-((2-((2-((pentylcyclopropyl)methyl)cyclopropyl)methyl)cyclopropyl)methyl)cyclopropyl)butanoate methyl ester]
concentration needed to activate PKC, relative to BR-101 (DCP-LA) [1]: approx. 100 times lower | activation of purified PKC [1]: activated purified PKC to a similar extent

Compound: CCCC(=O)O[C@@H]1[C@@H](C)[C@@]2(O)[C@@H](C=C(CO)C[C@]3(O)C(=O)C(C)=C[C@@H]23)[C@@H]2C(C)(C)[C@]12OC(=O)CCC [PdBu, Phorbol-12,13-dibutyrate]
change in Aß [2]: increase in Aß

Compound: CCCCCC1OC1C/C=C\CCCCCCCC(=O)OC (stereo in doubt) [BR-117, vernolic acid methyl ester]
effect on PKC [1]: little or no effect

Compound: Soluble Aß oligomer: soluble >100 kDa oligomers (amylospheroids) prepared from synthetic Aß1-42 by the method of Noguchi et al.
PKC-ε in age-matched control (AC) skin fibroblasts ([3]; 500 nM, 24 hrs, five AC cases): decreases | PKC-ε in AD skin fibroblasts ([3]; 500 nM, 24 hrs, five AD cases): did not show decrease in expression | AC-AD ratio of normalized PKC-ε in treated cells ([3]; untreated cells 1.4): ~1

Compound: CCCCCCCCCCCCCC(=O)O[C@@H]1[C@@H](C)[C@@]2(O)[C@@H](C=C(CO)C[C@]3(O)C(=O)C(C)=C[C@@H]23)[C@@H]2C(C)(C)[C@]12OC(C)=O [PMA, phorbol 12-myristate 13-acetate]
downregulation of PKC activity [4]: strongly downregulated | EC50 [5]: […]

More lines, main results first:

effect on PKC [1]: little or no effect
Compound: Linoleic alcohol cyclopropanated [BR-105]

effect on PKC [1]: little or no effect
Compound: Linolenyl alcohol cyclpropanated [BR-104]

concentration needed to activate PKC, relative to BR-101 (DCP-LA) [1]: approx. 100 times lower
Compound: CCC1CC1CC1CC1CC1CC1CC1CC1CC1CC1CCCC(=O)OC (stereo not drawn) [BR-114]
activation of purified PKC [1]: activated purified PKC to a similar extent

concentrations at which PKC was inhibited [1]: above 1 μM
Compound: Vernolic acid cyclopropanated methyl ester [BR-109]

effect on PKC [1]: little or no effect
Compound: epoxystearic acid [BR-116]
